Results reported in PubChem BioAssay (NCI).
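Test compounds were applied to cells in 96-well plates for 48 hours at 5 doses. GI50 marks 50% less growth. The concentration for full growth arrest is given as TGI.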

Assays:
Experiment in all cases: NCI anticancer screen, dose series, 48 h
MALME-3M melanoma = tested on: MALME-3M melanoma
SNB-19 CNS = tested on: SNB-19 CNS
NCI/ADR-RES ovarian = tested on: NCI/ADR-RES ovarian
OVCAR-5 ovarian = tested on: OVCAR-5 ovarian
NCI-H460 lung = tested on: NCI-H460 lung
TK-10 renal = tested on: TK-10 renal
OVCAR-3 ovarian = tested on: OVCAR-3 ovarian
RXF 393 renal = tested on: RXF 393 renal
CAKI-1 renal = tested on: CAKI-1 renal
SK-MEL-2 melanoma = tested on: SK-MEL-2 melanoma
LOX IMVI melanoma = tested on: LOX IMVI melanoma
HOP-62 NSCLC = tested on: HOP-62 NSCLC
CCRF-CEM leukemia = tested on: CCRF-CEM leukemia
HT29 colon = tested on: HT29 colon
RPMI-8226 leukemia = tested on: RPMI-8226 leukemia
SK-MEL-28 melanoma = tested on: SK-MEL-28 melanoma
HCC-2998 colon = tested on: HCC-2998 colon
MOLT-4 leukemia = tested on: MOLT-4 leukemia
SN12C renal = tested on: SN12C renal
SW-620 colon = tested on: SW-620 colon
SK-MEL-5 melanoma = tested on: SK-MEL-5 melanoma
PC-3 prostate = tested on: PC-3 prostate
ACHN renal = tested on: ACHN renal
COLO 205 colon = tested on: COLO 205 colon
BT-549 breast = tested on: BT-549 breast
OVCAR-4 ovarian = tested on: OVCAR-4 ovarian
IGROV1 ovarian = tested on: IGROV1 ovarian
M14 melanoma = tested on: M14 melanoma
HS 578T breast = tested on: HS 578T breast
MDA-MB-231 breast = tested on: MDA-MB-231 breast
NCI-H522 lung = tested on: NCI-H522 lung
DU-145 prostate = tested on: DU-145 prostate
MCF7 breast = tested on: MCF7 breast
HOP-92 NSCLC = tested on: HOP-92 NSCLC
K-562 leukemia = tested on: K-562 leukemia
OVCAR-8 ovarian = tested on: OVCAR-8 ovarian
UACC-62 melanoma = tested on: UACC-62 melanoma
UACC-257 melanoma = tested on: UACC-257 melanoma
EKVX NSCLC = tested on: EKVX NSCLC
SF-268 CNS = tested on: SF-268 CNS
HCT-15 colon = tested on: HCT-15 colon
T-47D breast = tested on: T-47D breast
KM12 colon = tested on: KM12 colon
SF-539 CNS = tested on: SF-539 CNS
U251 CNS = tested on: U251 CNS
UO-31 renal = tested on: UO-31 renal
A498 renal = tested on: A498 renal
A549 NSCLC = tested on: A549 NSCLC
NCI-H23 lung = tested on: NCI-H23 lung
SF-295 CNS = tested on: SF-295 CNS
SR leukemia = tested on: SR leukemia
HL-60(TB) leukemia = tested on: HL-60(TB) leukemia

Question: What does the source list for `O=C1c2cc3c(cc2-c2c1c1ccc(Cl)cc1c(=O)n2C[C@H](O)[C@@H](O)[C@H](O)CO)OCO3`?
Answer: GI50 (MALME-3M melanoma): 0.0737 µM; TGI (MALME-3M melanoma): 0.505 µM; GI50 (SNB-19 CNS): 0.0216 µM; TGI (SNB-19 CNS): > 100 µM; GI50 (NCI/ADR-RES ovarian): 0.0335 µM; TGI (NCI/ADR-RES ovarian): 1.91 µM; GI50 (OVCAR-5 ovarian): 0.0524 µM; TGI (OVCAR-5 ovarian): 1.29 µM; GI50 (NCI-H460 lung): 0.0284 µM; TGI (NCI-H460 lung): 0.153 µM; GI50 (TK-10 renal): 0.271 µM; TGI (TK-10 renal): 1.58 µM; GI50 (OVCAR-3 ovarian): 0.0758 µM; TGI (OVCAR-3 ovarian): 0.452 µM; GI50 (RXF 393 renal): 0.0536 µM; TGI (RXF 393 renal): 0.258 µM; GI50 (CAKI-1 renal): 0.0325 µM; TGI (CAKI-1 renal): 0.4 µM; GI50 (SK-MEL-2 melanoma): 0.194 µM; TGI (SK-MEL-2 melanoma): 0.432 µM; GI50 (LOX IMVI melanoma): 0.0145 µM; TGI (LOX IMVI melanoma): 0.103 µM; GI50 (HOP-62 NSCLC): 0.0186 µM; TGI (HOP-62 NSCLC): 0.341 µM; GI50 (CCRF-CEM leukemia): < 0.01 µM; TGI (CCRF-CEM leukemia): 17 µM; GI50 (HT29 colon): 0.0498 µM; TGI (HT29 colon): 0.283 µM; GI50 (RPMI-8226 leukemia): 0.24 µM; TGI (RPMI-8226 leukemia): 0.989 µM; GI50 (SK-MEL-28 melanoma): 0.0997 µM; TGI (SK-MEL-28 melanoma): 1.16 µM; GI50 (HCC-2998 colon): 0.0638 µM; TGI (HCC-2998 colon): 0.479 µM; GI50 (MOLT-4 leukemia): < 0.01 µM; TGI (MOLT-4 leukemia): 12.5 µM; GI50 (SN12C renal): 0.0473 µM; TGI (SN12C renal): > 100 µM; GI50 (SW-620 colon): 0.0163 µM; TGI (SW-620 colon): 0.325 µM; GI50 (SK-MEL-5 melanoma): 0.0253 µM; TGI (SK-MEL-5 melanoma): 0.0701 µM; GI50 (PC-3 prostate): 0.128 µM; TGI (PC-3 prostate): > 100 µM; GI50 (ACHN renal): 0.0254 µM; TGI (ACHN renal): 0.118 µM; GI50 (COLO 205 colon): 0.08 µM; TGI (COLO 205 colon): 0.895 µM; GI50 (BT-549 breast): 0.0301 µM; TGI (BT-549 breast): 1.36 µM; GI50 (OVCAR-4 ovarian): 0.177 µM; TGI (OVCAR-4 ovarian): > 100 µM; GI50 (IGROV1 ovarian): 0.126 µM; TGI (IGROV1 ovarian): > 100 µM; GI50 (M14 melanoma): 0.0292 µM; TGI (M14 melanoma): 10.1 µM; GI50 (HS 578T breast): 0.328 µM; TGI (HS 578T breast): > 100 µM; GI50 (MDA-MB-231 breast): 0.333 µM; TGI (MDA-MB-231 breast): 3.76 µM; GI50 (NCI-H522 lung): 0.0117 µM; TGI (NCI-H522 lung): 0.172 µM; GI50 (DU-145 prostate): 0.0374 µM; TGI (DU-145 prostate): > 100 µM; GI50 (MCF7 breast): < 0.01 µM; TGI (MCF7 breast): 0.178 µM; GI50 (HOP-92 NSCLC): 0.069 µM; TGI (HOP-92 NSCLC): 0.666 µM; GI50 (K-562 leukemia): 0.0342 µM; TGI (K-562 leukemia): > 100 µM; GI50 (OVCAR-8 ovarian): 0.0633 µM; TGI (OVCAR-8 ovarian): > 100 µM; GI50 (UACC-62 melanoma): 0.0129 µM; TGI (UACC-62 melanoma): 0.111 µM; GI50 (UACC-257 melanoma): 0.0771 µM; TGI (UACC-257 melanoma): 0.396 µM; GI50 (EKVX NSCLC): 0.202 µM; TGI (EKVX NSCLC): 11.2 µM; GI50 (SF-268 CNS): 0.0155 µM; TGI (SF-268 CNS): > 100 µM; GI50 (HCT-15 colon): 0.143 µM; TGI (HCT-15 colon): 1.66 µM; GI50 (T-47D breast): 0.0132 µM; TGI (T-47D breast): 0.29 µM; GI50 (KM12 colon): 0.138 µM; TGI (KM12 colon): > 100 µM; GI50 (SF-539 CNS): 0.016 µM; TGI (SF-539 CNS): 0.0602 µM; GI50 (U251 CNS): < 0.01 µM; TGI (U251 CNS): 0.0505 µM; GI50 (UO-31 renal): 0.0297 µM; TGI (UO-31 renal): 0.125 µM; GI50 (A498 renal): 0.0673 µM; TGI (A498 renal): 0.207 µM; GI50 (A549 NSCLC): 0.112 µM; TGI (A549 NSCLC): 0.476 µM; GI50 (NCI-H23 lung): 0.0293 µM; TGI (NCI-H23 lung): 0.193 µM

Question: How did the TGI (SNB-19 CNS) turn out when `Nc1nc(Nc2ccccc2)sc1C(=O)c1ccc(Cl)cc1` was run?
Answer: > 100 µM

Question: And the TGI (OVCAR-5 ovarian)?
Answer: > 100 µM

Question: What about the TGI (TK-10 renal) of the same molecule?
Answer: > 100 µM

Question: And the TGI (RXF 393 renal)?
Answer: 5.17 µM

Question: And the TGI (SF-295 CNS)?
Answer: > 100 µM

Question: And the TGI (CAKI-1 renal)?
Answer: 27.4 µM

Question: And the TGI (SR leukemia)?
Answer: > 100 µM

Question: And the TGI (SK-MEL-2 melanoma)?
Answer: > 100 µM

Question: And the TGI (CCRF-CEM leukemia)?
Answer: > 100 µM

Question: And the TGI (HT29 colon)?
Answer: > 100 µM

Question: What about the TGI (SK-MEL-28 melanoma) of the same molecule?
Answer: > 100 µM

Question: And the TGI (MOLT-4 leukemia)?
Answer: > 100 µM

Question: And the TGI (SW-620 colon)?
Answer: > 49 µM

Question: What about the TGI (COLO 205 colon) of the same molecule?
Answer: > 100 µM

Question: And the TGI (BT-549 breast)?
Answer: > 100 µM

Question: What about the TGI (OVCAR-4 ovarian) of the same molecule?
Answer: 3.01 µM

Question: And the TGI (IGROV1 ovarian)?
Answer: > 100 µM

Question: What about the TGI (M14 melanoma) of the same molecule?
Answer: > 100 µM

Question: What about the TGI (MDA-MB-231 breast) of the same molecule?
Answer: > 100 µM

Question: And the TGI (MCF7 breast)?
Answer: > 100 µM

Question: What about the TGI (HOP-92 NSCLC) of the same molecule?
Answer: > 100 µM

Question: And the TGI (HL-60(TB) leukemia)?
Answer: > 100 µM

Question: And the TGI (K-562 leukemia)?
Answer: > 100 µM

Question: And the TGI (EKVX NSCLC)?
Answer: > 100 µM

Question: What about the TGI (SF-268 CNS) of the same molecule?
Answer: > 100 µM

Question: What about the TGI (HCT-15 colon) of the same molecule?
Answer: > 100 µM

Question: What about the TGI (T-47D breast) of the same molecule?
Answer: > 100 µM

Question: And the TGI (KM12 colon)?
Answer: > 100 µM

Question: And the TGI (SF-539 CNS)?
Answer: > 100 µM

Question: And the TGI (NCI-H23 lung)?
Answer: > 100 µM
